Experimental data from patent US8124784B2, “Palladium metal complex” (Nagasaki University, priority 2008, dated 2012).

Assay: Solubility of the metal complex A in organic solvents
Assay type: physicochemical
Experimental: The solubility of the metal complex A in organic solvents was tested.

solubility in organic solvent (acetone): insoluble
solubility in organic solvent (acetonitrile): insoluble
solubility in organic solvent (benzene): slightly soluble
solubility in organic solvent (chloroform): soluble
solubility in organic solvent (diethyl ether): insoluble
solubility in organic solvent (ethanol): insoluble
solubility in organic solvent (hexane): insoluble
solubility in organic solvent (methanol): insoluble
solubility in organic solvent (methylene chloride): soluble
solubility in organic solvent (toluene): slightly soluble
Substance: [Pd2Au2Cl2(μ-dmpz)4(dmpzH)2] [metal complex A]
